# Tested on: peroxide level in the skin
# Experiment: TBA test of peroxide level in skin of adult mice after topical application
# Format: in vivo
# Conditions: 0.1% dissolved in Oil of Olay, similar experiments
# From the text: Samples of lotions and appropriate controls were applied to mice or rat skin for a fixed period. The application was done once a day. Experiments were terminated by killing the animal, peeling the skin and freezing it in liquid nitrogen. Samples of the frozen skin were homogenized in 0.2M phosphate buffer, pH 6.5. After centrifugation, the supernatant was collected and analyzed for the peroxide value using the TBA (thiobarbituric acid) test as described by Sinnhuber et al, Food Res. 23: 620 (1958). In the experiments which follow, newborn (hairless) rats were used. It is generally considered that the penetration through the skin of newborn rats is better than in adult rats, since at this stage they have not yet developed any fur.
# In these experiments adult mice (2 months old) were treated as described in Example 2. The grown mice were shaved before applying the lotions to the skin.
# In this experiment the antioxidant was dissolved in Oil of Olay. Mice were sacrificed after 21 days.
row,SMILES,reduction of the level of peroxides
1,COc1ccc(O)c(C(C)(C)C)c1 [BHA],no reduction of the level of peroxides was observed
2,Cc1cc(C(C)(C)C)c(O)c(C(C)(C)C)c1 [BHT],no reduction of the level of peroxides was observed
3,Cc1c(C)c2c(c(C)c1O)CCC(C)(CCCC(C)CCCC(C)CCCC(C)C)O2 (stereo not drawn) [alpha tocopherol],no reduction of the level of peroxides was observed

# Reference: US4986985A, “Method of treating skin virus infections” (Bar Ilan University, priority 1987, dated 1991)
